Test results: patent publication US20030144360A1, “Composition and method for modulating BAR/FXR receptor activity” (Allergan Sales, Inc., priority 2001, published 2003)

Key:
HepG2 cells = assay: Northern blot analysis of BAR/FXR target genes in HepG2 cells; assay type: cell-based, human; details: for CYP7A expression / BAR/FXR expression / GAPDH expression / transcription of SHP: 24 hours
Experimental: One day prior to treatment, confluent HepG2 and differentiated Caco-2 cells were switched to phenol red-free media containing resin-charcoal stripped FBS and then treated for and additional 24 hours with the indicated compounds. Total RNA was isolated using the Trizol reagent. Northern blots were prepared from polyA^+ RNA using the Oligotex method (Qiagen) and analyzed with the following probes: human CYP7A (accession #M93133) nucleotides 1617-2576 (Karam and Chiang, 185 Biochem. Biophys. Res. Commun. 588 (1992)), human SHP (accession #L76571) nucleotides 888-1355, human IBABP (accession # A1311734), an EST containing the entire coding sequence of IBABP.
We next tested the ability of AGN 29 and AGN 31 to regulate BAR/FXR target genes. We used the hepatoma cell line HepG2 as a hepatocyte model as this cell line has been used extensively to study cholesterol metabolism and bile acid-mediated gene regulation. We monitored the expression of two well known BAR/FXR target genes: CYP7A, the rate-limiting enzyme for bile acid synthesis, is down regulated by bile acids in HepG2 cells.
To verify that AGN34 represses BAR/FXR […], we looked at its effect on BAR/FXR target genes in cultured cells by Northern blot analysis.

[1] = target: T1, BAR/FXR (BAR-RXR heterodimer) (UniProt P19793+Q62735); assay: Transient cotransfection luciferase reporter assay, full-length BAR/FXR and RXR in CV-1 cells; design: repression of the BAR/RXR heterodimer: dose or concentration left out as unconfirmed; details: for activation of BAR/FXR (luciferase expression): 5 μM, 40 hours
T1 sequence (Q62735 1-469): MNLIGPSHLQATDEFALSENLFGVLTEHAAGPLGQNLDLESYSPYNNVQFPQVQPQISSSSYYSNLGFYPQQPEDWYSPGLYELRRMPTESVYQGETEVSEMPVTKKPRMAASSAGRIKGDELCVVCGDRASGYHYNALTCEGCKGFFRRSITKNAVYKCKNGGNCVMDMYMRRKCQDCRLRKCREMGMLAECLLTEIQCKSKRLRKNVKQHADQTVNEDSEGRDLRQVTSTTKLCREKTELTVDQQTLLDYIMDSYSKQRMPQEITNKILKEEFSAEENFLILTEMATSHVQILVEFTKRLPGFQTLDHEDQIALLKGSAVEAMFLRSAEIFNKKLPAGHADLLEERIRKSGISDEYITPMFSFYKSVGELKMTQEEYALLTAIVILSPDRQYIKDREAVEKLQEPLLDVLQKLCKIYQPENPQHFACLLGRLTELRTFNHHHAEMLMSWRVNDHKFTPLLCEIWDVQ
T1 sequence (P19793 1-462): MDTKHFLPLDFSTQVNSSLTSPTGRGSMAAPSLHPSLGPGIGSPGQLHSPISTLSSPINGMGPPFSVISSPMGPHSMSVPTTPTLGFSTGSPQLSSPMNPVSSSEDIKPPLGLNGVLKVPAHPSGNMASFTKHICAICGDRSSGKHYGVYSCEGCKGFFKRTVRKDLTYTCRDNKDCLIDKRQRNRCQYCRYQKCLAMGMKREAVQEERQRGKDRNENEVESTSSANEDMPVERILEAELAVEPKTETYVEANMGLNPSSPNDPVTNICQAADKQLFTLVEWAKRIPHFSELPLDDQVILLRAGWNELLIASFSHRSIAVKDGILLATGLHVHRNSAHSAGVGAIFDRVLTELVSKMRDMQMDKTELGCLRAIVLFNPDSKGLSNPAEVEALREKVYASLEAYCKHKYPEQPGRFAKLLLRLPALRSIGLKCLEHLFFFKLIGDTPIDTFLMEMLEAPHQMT

Gal-L-RXR = target: T2, Gal-L-RXR (Homo sapiens, UniProt P19793); assay: Gal-L-RXR fusion with Gal 4 reporter (MH100×4) in CV-1 cells; assay type: cell-based; details: 5 μM
T2 construct: expressed in transfected cells; host or cells: CV-1
T2 sequence (P19793 203-462): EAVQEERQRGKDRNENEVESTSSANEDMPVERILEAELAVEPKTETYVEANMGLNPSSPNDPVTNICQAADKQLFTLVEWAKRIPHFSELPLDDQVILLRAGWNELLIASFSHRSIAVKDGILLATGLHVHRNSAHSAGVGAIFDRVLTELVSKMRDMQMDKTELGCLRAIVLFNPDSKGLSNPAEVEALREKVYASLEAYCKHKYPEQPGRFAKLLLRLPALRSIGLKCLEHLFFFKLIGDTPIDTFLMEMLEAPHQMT
Experimental: The nucleic acid regions encoding the following full-length proteins were cloned into a CMV expression vector.
For GAL-L-RXR, the plasmid nucleic acids encoded amino acids Glu203 to Thr462 of human RXRα (SEQ ID NO: 4) fused to the GAL4 sequences. The junction between the carboxyl terminal section of GAL4 and the amino terminal portion of the RXR LBD had the following structure:
CV-1 African Green Monkey cells were grown in Dulbecco's Modified Eagle's medium supplemented with 10% resin-charcoal stripped fetal bovine serum (FBS), 50 U/ml penicillin G and 50 μg/ml streptomycin sulfate (DMEM-FBS) at 37° C. in 5% CO2. […]
(§1) The harvested cells were assayed for the presence of luciferase activity. […] Luciferase activity was measured by reaction of the cell lysates with luciferin in a reaction buffer comprising: 20 mM tricine, 1.07 mM Mg(CO3)4-Mg(OH)2-5H2O, 2.67 mM MgSO4.7H2O, 0.1 mM EDTA, 0.5 mM Sodium luciferin, 0.15 mg/ml Coenzyme A, 5 mM DTT, and 0.5 mM adenosine triphosphate (ATP). Resulting chemiluminescence was measured in a luminometer. […]
(§2) The transfected cells were then treated with the indicated ligands for 40 hours. Activity was measured using luciferase expression in the cotransfection assay described above. […] Thus, Gal-L-RAR or Gal-L-RXR fusions were transfected into CV-1 cells with a Gal 4 reporter (MH100×4) and the effect of different ligands was evaluated.

[2] = test system: AR, mPXR, hPXR, ERα, CARβ, LXRα, PPARα, PPARβ, PPARδ, VDR and TRβ; assay: Activation of other RXR heterodimers / nuclear receptors (transfection assay); assay type: cell-based
Experimental: CV-1 African Green Monkey cells were grown in Dulbecco's Modified Eagle's medium supplemented with 10% resin-charcoal stripped fetal bovine serum (FBS), 50 U/ml penicillin G and 50 μg/ml streptomycin sulfate (DMEM-FBS) at 37° C. in 5% CO2. One day prior to transfection, cells were plated to 50-80% confluence using phenol red-free DMEM-FBS. Cells were transiently transfected by lipofection as described in Forman et al., 81 Cell 687 (1995). Liposomes (N-[1-(2,3-dioleoyloxy)propyl]-N,N,N-ammonium methyl sulfate, sold by Boehringer Mannheim under the name DOTAP) were formed according to the manufacturer's instructions. […]
as §1, §2

Gal-L-RAR = target: T3, Gal-L-RAR (Homo sapiens, UniProt P10276); assay: Gal-L-RAR fusion with Gal 4 reporter (MH100×4) in CV-1 cells; assay type: cell-based; details: 5 μM
T3 construct: expressed in transfected cells; host or cells: CV-1
T3 sequence (P10276 156-462 limits assumed): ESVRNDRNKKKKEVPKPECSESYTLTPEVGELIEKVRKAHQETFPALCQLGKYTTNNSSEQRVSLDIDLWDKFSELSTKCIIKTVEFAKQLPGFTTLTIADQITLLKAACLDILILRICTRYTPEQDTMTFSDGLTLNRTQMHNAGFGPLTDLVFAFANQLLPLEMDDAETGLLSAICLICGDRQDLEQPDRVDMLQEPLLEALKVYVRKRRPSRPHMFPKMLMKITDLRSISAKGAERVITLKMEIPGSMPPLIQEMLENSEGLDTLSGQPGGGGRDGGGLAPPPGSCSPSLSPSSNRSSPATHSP
Experimental: The nucleic acid regions encoding the following full-length proteins were cloned into a CMV expression vector. […] The βgal contains the E. coli P-galactosidase coding sequences derived from pCH110 (accession #U02445). RXRm contains a single point mutation (Asp-322-Pro) in the LBD of human RXRα.
CV-1 African Green Monkey cells were grown in Dulbecco's Modified Eagle's medium supplemented with 10% resin-charcoal stripped fetal bovine serum (FBS), 50 U/ml penicillin G and 50 μg/ml streptomycin sulfate (DMEM-FBS) at 37° C. in 5% CO2. One day prior to transfection, cells were plated to 50-80% confluence using phenol red-free DMEM-FBS. […]
as §1, §2

Row | SMILES | basal SHP levels (HepG2 cells; 1 μM AGN 34, 24 hours) | CYP7A expression (HepG2 cells; AGN 34 alone) | CYP7A expression (HepG2 cells; combination of AGN 34 and CDCA) | repression of the BAR/RXR heterodimer [1] | repression of CDCA-activated transcription ([1]; 0.03 μM AGN 34, constant concentration of CDCA) | repression of CDCA-activated BAR-mediated transcription ([1]; 50 μM CDCA + 1 μM AGN 34) | basal activity of luciferase gene expression ([1]; AGN 34 (1 μM) without CDCA) | concentration showing maximal activity (repression) ([1]; constant concentration of CDCA) | activation of RXR (Gal-L-RXR) | BAR/FXR expression (HepG2 cells; 10 μM) | CYP7A expression (HepG2 cells; 10 μM) | GAPDH expression (HepG2 cells; 10 μM) | transcription of SHP (HepG2 cells; 10 μM) | EC50 [1] | activation of BAR/FXR (luciferase expression) [1] | effect on other RXR heterodimers containing nuclear receptors [2] | activation of RAR (Gal-L-RAR)
1 | CCCCCCOc1c(\C(C)=C/C=C/C(C)=C/C(=O)O)cc(C(C)C)cc1C(C)C [AGN 34, (2E, 4E, 6Z)-7-(2-Hexyloxy-3,5-diisopropylphenyl)-3-methylocta-2,4,6-trienoic Acid] | did not affect | repressed | repressed even further | ~10 fold | approximately 85% | ~10 fold | did not affect | 1 µM |  |  |  |  |  |  |  |  | 
2 | CCCC/C(=C\c1ccc(C(=O)O)cc1)c1ccc2c(c1)C(C)(C)CCC2(C)C [AGN 31, 4-[2-(5,5,8,8-Tetramethyl-5,6,7,8-tetrahydronaphthalen-2-yl)hex-1-enyl]benzoic Acid] |  |  |  |  |  |  |  |  | retained some ability to activate RXR | no effect | repress | no effect | induce | ~2000 nM | 85 fold | no effect | loss of specificity for RAR
3 | Cc1cc2c(cc1/C(=C/c1ccc(C(=O)O)cc1)[Si](C)(C)C)C(C)(C)CCC2(C)C [AGN 29, (Z)-4-[2-(3,5,5,8,8-Pentamethy1-5,6,7,8-tetrahydronaphthalen-2-yl)-2-(trimethylsilyl)vinyl]benzoic Acid] |  |  |  |  |  |  |  |  | retained some ability to activate RXR | no effect | repress | no effect | induce | ~2000 nM | 91 fold | no effect | loss of specificity for RAR
